Assay results reported in US20090105278A1, “Selective inhibitors of human corticosteroid syntheses” (Universitat Des Saarlandes, priority 2004, published 2009).
Counter-ions that a name gives are not always drawn.

What was measured:
[1] = target: T1, human CYP11B2 (Homo sapiens, UniProt P19099); assay: Screening test in transgenic fission yeast (S. pombe PE1) expressing human CYP11B2; type: cell-based; set-up: expressed in transfected cells; conditions: S. pombe cells which express human CYP11B2; deoxycorticosterone substrate 100 nM; inhibitor 500 nM; read-out: % Inhibition human hCYP11B2
T1 sequence (P19099 25-503): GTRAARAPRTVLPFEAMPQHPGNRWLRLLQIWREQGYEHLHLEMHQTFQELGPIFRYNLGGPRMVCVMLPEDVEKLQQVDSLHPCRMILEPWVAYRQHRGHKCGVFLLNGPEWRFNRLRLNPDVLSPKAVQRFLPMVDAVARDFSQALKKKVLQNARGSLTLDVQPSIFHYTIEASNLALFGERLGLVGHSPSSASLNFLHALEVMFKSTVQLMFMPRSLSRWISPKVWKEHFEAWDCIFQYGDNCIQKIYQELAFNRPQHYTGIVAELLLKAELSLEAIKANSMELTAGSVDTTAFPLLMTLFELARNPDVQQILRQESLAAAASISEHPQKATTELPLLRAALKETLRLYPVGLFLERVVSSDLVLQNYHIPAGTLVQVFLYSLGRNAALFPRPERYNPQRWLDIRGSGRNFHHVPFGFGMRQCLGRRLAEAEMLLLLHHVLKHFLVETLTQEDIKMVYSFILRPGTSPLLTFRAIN
How it was run: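 Deoxycorticosterone conversion to corticosterone, 18-hydroxycorticosterone and aldosterone assessed after EtOAc extraction by HPTLC with 14C phosphorimaging. Conversion rate calculated from quantified steroid spots.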

[2] = target: T2, human placental CYP19 (Homo sapiens, UniProt P11511); assay: IC50 of CYP19 (human placental microsomes); type: biochemical; conditions: human placental CYP19; testosterone substrate 2.5 μM
T2 construct: The enzyme was obtained from the microsome fraction of fresh human placenta; from tissue; host or cells: human placenta, microsomal fraction
T2 sequence (P11511 1-503): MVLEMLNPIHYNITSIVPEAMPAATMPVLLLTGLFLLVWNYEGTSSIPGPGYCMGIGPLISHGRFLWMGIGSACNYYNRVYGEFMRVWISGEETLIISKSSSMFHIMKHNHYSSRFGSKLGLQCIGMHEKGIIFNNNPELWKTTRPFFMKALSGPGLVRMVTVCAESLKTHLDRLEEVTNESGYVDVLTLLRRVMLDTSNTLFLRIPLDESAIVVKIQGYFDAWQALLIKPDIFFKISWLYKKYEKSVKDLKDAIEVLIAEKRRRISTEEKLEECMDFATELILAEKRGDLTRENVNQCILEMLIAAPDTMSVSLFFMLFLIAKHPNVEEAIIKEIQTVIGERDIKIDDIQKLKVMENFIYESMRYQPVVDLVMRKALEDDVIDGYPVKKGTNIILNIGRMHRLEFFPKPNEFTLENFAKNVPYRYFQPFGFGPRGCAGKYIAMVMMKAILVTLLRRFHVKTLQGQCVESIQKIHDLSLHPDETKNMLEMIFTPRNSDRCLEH
Experimental: The isolated microsomes were suspended in a minimum volume of phosphate buffer (0.05 M; pH 7.4; […]). In addition, DTT (10 mM) and EDTA (1 mM) were added to protect the enzyme from degradation reactions.
[…] […] The compounds to be tested were dissolved in DMSO and diluted with buffer to the desired concentration. The final DMSO concentration of the control and inhibitor incubations was about 20%. Each vessel was preincubated in a water bath at 30° C. for 5 min. The reaction was started by adding the microsomal protein (0.1 mg). The total volume of each mixture was 200 μl. After 14 min, the reaction was quenched by adding 200 μl of ice cold 1 mM HgCl2 solution. Two hundred microliters of a 2% aqueous suspension of dextran-coated charcoal, DCC) was added for absorbing the steroids, and the vessels were shaken for 20 min. Thereafter, the charcoal was centrifuged off at 1500 g for 5 min. The radioactive water present in the supernatant (^3H2O) was assayed by scintillation measurement using an LKB-Wallac beta counter. The calculation of the IC50 values was effected by a semilogarithmic plot of the percent inhibition against the inhibitor concentration.

[3] = target: T1, human CYP11B2; assay: V79 MZh 11B2 cells inhibition test; type: cell-based; set-up: expressed in transfected cells; host or cells: V79 MZh11B2 (Chinese hamster lung fibroblasts); conditions: hamster fibroblasts which express human CYP11B2; deoxycorticosterone substrate 100 nM; read-out: IC50 V79 11B2 hCYP11B2
Experimental: Both cell lines were cultured in DMEM^+ containing […] and the antibiotics penicillin and streptomycin (10%) for protection from bacterial contamination. The cells were passaged every 2-3 days after treatment with trypsin/EDTA because the doubling rate was 1-2 days depending on the number of cells. […] When there was further need, freshly thawed cells were employed.
Thereafter, the plate was stored at 37° C. and […] in a CO2 incubator. The V79 MZh 11B1 cells were incubated for 120 min, and the V79 MZh 11B2 cells were incubated for 40 min. Controls without inhibitor were treated in the same way. The enzyme reactions were quenched by extracting the supernatant with 500 μl of EtOAc. The samples were centrifuged (10,000 g, 2 min), the solvent was removed and evaporated.
For V79 MZh11B2, the conversion rate was obtained in accordance with equation 3: […]
It was calculated by determining the percent inhibition for at least 3 different inhibitor concentrations, which must all be in the linear range of the sigmoidal IC50 curve (log C/% inhibition).
The calculation was effected by linear regression. The values determined were used only if they formed a straight line with a reliability of […].
The plate was developed twice with the mobile solvent chloroform:methanol:water (300:20:1). Unlabeled 11-deoxycorticosterone and corticosterone were applied as a reference for the CYP11B1 reaction. For the CYP11B2 reaction, 11-deoxycorticosterone, corticosterone, 18-hydroxycorticosterone and aldosterone were used as references. The detection of the unlabeled references was effected at 260 nm. Subsequently, imaging plates (BAS MS2340, for ^14C samples, Raytest, Straubenhardt, Germany) were exposed to the HPTLC plates for 48 h. The imaging plates were scanned with the phosphoimager system Fuji FLA 3000 (Raytest, Straubenhardt, Germany), and the steroids were quantified.

| Structure (SMILES) | inhibition at 0.5 µM [1] [%] | IC50 [2] [nM] | IC50 [3] [nM] |
| --- | --- | --- | --- |
| Brc1ccc2c(c1)CC/C2=C\c1cccnc1 [Compound 9a, 3-[(E)-(5-Bromo-2,3-dihydro-1H-indane-1-ylidene)methyl]pyridine Hydrochloride] | 60 | 7830 | 37.4 |
| Brc1ccc2c(c1)CC/C2=C/c1cccnc1 [Compound 9b, 3-[(Z)-(5-Bromo-2,3-dihydro-1H-indane-1-ylidene)methyl]pyridine Hydrochloride] | 58 | 7370 | 171 |
| COc1ccc2c(c1)CC/C2=C\c1cccnc1 [Compound 11a, 3-[(E)-(5-Methoxy-2,3-dihydro-1H-indane-1-ylidene)methyl]pyridine Hydrochloride] | 79 | 4310 | 34.2 |
| COc1ccc2c(c1)CC/C2=C/c1cccnc1 [Compound 11b, 3-[(Z)-(5-Methoxy-2,3-dihydro-1H-indane-1-ylidene)methyl]pyridine Hydrochloride] | 81 | 5570 | 26.4 |
| COc1ccc2c(c1)CCC/C2=C\c1cccnc1 [Compound 13a, 3-[(E)-(6-Methoxy-3,4-dihydronaphthalene-1(2H)-ylidene)methyl]pyridine Hydrochloride] | 52 | 1130 | 56.6 |
| COc1ccc2c(c1)CCC/C2=C/c1cccnc1.Cl [Compound 13b, 3-[(Z)-(6-Methoxy-3,4-dihydronaphthalene-1(2H)-ylidene)methyl]pyridine Hydrochloride] | 53 | 4000 | 878 |
| CCOc1ccc2c(c1)CC/C2=C\c1cccnc1 [Compound 19a, 3-[(E)-(5-Ethoxy-2,3-dihydro-1H-indane-1-ylidene)methyl]pyridine Hydrochloride] | 67 | 7080 | 79.4 |
| CCOc1ccc2c(c1)CC/C2=C/c1cccnc1 [Compound 19b, 3-[(Z)-(5-Ethoxy-2,3-dihydro-1H-indane-1-ylidene)methyl]pyridine Hydrochloride] | 52 | 7680 | 248 |
| Cc1cccc2c1CC/C2=C\c1cccnc1 [Compound 23a, 3-[(E)-(4-Methyl-2,3-dihydro-1H-indane-1-ylidene)methyl]pyridine Hydrochloride] | 52 | 4720 | 108 |
| Fc1cccc2c1CC/C2=C\c1cccnc1 [Compound 24a, 3-[(E)-(4-Fluoro-2,3-dihydro-1H-indane-1-ylidene)methyl]pyridine Hydrochloride] | 84 | 1810 | 20.9 |
| Clc1cccc2c1CC/C2=C\c1cccnc1 [Compound 25a, 3-[(E)-(4-Chloro-2,3-dihydro-1H-indane-1-ylidene)methyl]pyridine Hydrochloride] | 92 | 130 | 8.7 |
| Clc1cccc2c1CC/C2=C/c1cccnc1 [Compound 25b, 3-[(Z)-(4-Chloro-2,3-dihydro-1H-indane-1-ylidene)methyl]pyridine Hydrochloride] | 83 | 230 | 30.6 |
| COc1cccc2c1/C(=C/c1cccnc1)CC2 [Compound 26a, 3-[(E)-(7-Methoxy-2,3-dihydro-1H-indane-1-ylidene)methyl]pyridine Hydrochloride] | 76 | 9740 | 26.7 |
| Fc1ccc2c(c1)CC/C2=C\c1cncnc1 [Compound 28a, 5-[(E)-(5-Fluoro-2,3-dihydro-1H-indane-1-ylidene)methyl]pyrimidine Hydrochloride] | 72 | 7450 | 27.4 |
| Fc1ccc2c(c1)CC/C2=C\c1cccc2cnccc12 [Compound 30a, 5-[(E)-(5-Fluoro-2,3-dihydro-1H-indane-1-ylidene)methyl]isoquinoline Hydrochloride] | 60 | 720 | 58.1 |
| Fc1ccc2c(c1)CC/C2=C/c1cccc2cnccc12 [Compound 30b, 5-[(Z)-(5-Fluoro-2,3-dihydro-1H-indane-1-ylidene)methyl]isoquinoline Hydrochloride] | 91 | 1940 | 26.1 |
